Article PMC5011932, “Comparative pharmacokinetics and pharmacodynamics of intravenous artelinate versus artesunate in uncomplicated Plasmodium coatneyi-infected rhesus monkey model” (Malaria Journal, 2016)
Several values for one entry are separate records, joined by “and”; a condition that tells them apart may be missing. Identical values can stand only once.

Assays:
Plasmodium coatneyi = assay: In vivo pharmacodynamics (parasite clearance) in uncomplicated P. coatneyi-infected splenectomized rhesus monkey model
Method: Twenty-two adult colony-born, Indian-origin rhesus macaques (Macaca mulatta) naïve monkeys were splenectomized and recovered well more than 1 month prior to entering the study. […] Twenty-two animals were randomized to two experiments of 11 monkeys. […] The control monkeys received intramuscular quinine treatment and the experimental animals received intravenous artemisinin candidates.
Based on our previous model validation, blood smears were performed to detect malaria parasites starting prior to inoculation on day 0 and continued daily (0700–0800 h). The monkeys were physically restrained in the squeeze cage restraint apparatus and approximately 0.1–0.2 ml whole blood was collected from each monkey by lancet puncture of the lateral auricular vein. Thick and thin smears were made on the same microscope glass slide and subsequently fixed in methanol and stained with Giemsa. When the smears were positive, white blood cell count (WBC) and/or red blood cell count (RBC) were also performed using automated haematology analyzer Sysmex K800 to calculate parasite density. Haematocrits were checked as needed. At study days 6–12, additional blood samples were obtained from all animals in the afternoon (1500–1600 h) to monitor parasitaemia levels. Daily blood smears were continued until two consecutive days with negative smears. Then the smear monitoring schedule was reduced to two times weekly for 2 weeks and then weekly for 6 weeks after completion of the last treatment.
Blood smear staining and parasitaemia determination took about 2 h. […] The control monkey received quinine treatment and the ten experimental animals received intravenous artemisinin derivative candidate.
After a week wash-out and recovery period, P. coatneyi (1 mL of >50,000 parasitized RBCs per microlitre or 5 × 10^6 RBC with a 1 % parasitaemia) were inoculated from a donor monkey into all the monkeys. The treatment was initiated at day 6 after inoculation at a parasitaemia ≥3 % or >200,000 parasites μL^−1 when the cohort of animals was minimally symptomatic. Drugs were given for 3 days with a loading dose initially followed by ½ of the first dose on the 2nd and 3rd days.
Blood smear were collected once daily in the morning. Once positive parasitaemia was observed and reached 2000 parasites μL^−1, blood smears were collected twice, in the morning and afternoon. Blood for slides preparation were collected from ear for thick and thin smear preparation. Blood films on glass slides were air dried, fixed with 100 % methanol, stained with Giemsa, and read under ×100 magnification oil emersion for parasite determination.
First, a thick smear was performed for parasite detection by reading the slides at least 50 fields under ×100 magnification oil emersion.

P. falciparum clone (W2) = assay: Ex vivo Plasmodium falciparum-based bioassay (BA) of rhesus plasma, effect kinetics (ePD) as DHA equivalents; format: cell-based
Method: Blood was collected for pharmacokinetic/pharmacodynamics (PK/PD) analysis after the first dose only due to rapid clearance of artemisinin derivatives. Heparinized blood was collected at 0, 5, 20, 40 min, 1, 3, and 6 h post-dose and plasma samples were separated within 2 h by centrifugation (1500g, 10 min). Aliquots of samples were made for simultaneous measurement by HPLC [16] and bioassay [14], and stored at −80 °C until analysis.
The plasma anti-malarial activities of the artemisinin derivatives were measured using a previously published method [14]. […] After centrifugation, the supernatant (100 µL) was transferred to a 96-well flat bottom plate. Twofold serial dilutions were then made using heat inactivated pooled control serum (human:rhesus = 1:1). A suspension of malaria (W2 clone) infected erythrocytes was added to each well. The microtitre plate was placed into a gas-tight plexiglass chamber, flushed with a gas mixture of 90 % CO2, 5 % O2, and 5 % N2, and placed into an incubator (37 °C). Following 24 h incubation, the plate was removed from the chamber and pulsed with [^3H]-hypoxanthine solution to each well and incubated for another 18–20 h before harvesting. The incorporation of [^3H]-hypoxanthine by the parasites in each well was determined by counting in a scintillation counter.
A dose–response curve for each plasma sample was constructed by plotting [^3H]-hypoxanthine uptake on the Y-axis against the corresponding dilution factor on the X-axis after logarithmic transformation. The dilution factor value that inhibits parasite growth by 50 % (DF50) of each plasma sample was determined.

[1] = rhesus monkey, in vivo
Method: (§1) These doses were chosen as the minimal effective doses (from previous model development and validation studies, unpublished data) and blood was collected for pharmacokinetic analysis. After a week wash-out and recovery period, P. coatneyi (1 mL of >50,000 parasitized RBCs per microlitre or 5 × 10^6 RBC with a 1 % parasitaemia) were inoculated from a donor monkey into all the monkeys. The treatment was initiated at day 6 after inoculation at a parasitaemia ≥3 % or >200,000 parasites μL^−1 when the cohort of animals was minimally symptomatic. Drugs were given for 3 days with a loading dose initially followed by ½ of the first dose on the 2nd and 3rd days.
(§2) Blood was collected for pharmacokinetic/pharmacodynamics (PK/PD) analysis after the first dose only due to rapid clearance of artemisinin derivatives. Heparinized blood was collected at 0, 5, 20, 40 min, 1, 3, and 6 h post-dose and plasma samples were separated within 2 h by centrifugation (1500g, 10 min). Aliquots of samples were made for simultaneous measurement by HPLC [16] and bioassay [14], and stored at −80 °C until analysis. All glassware was silanized before use with a 0.5 % aqueous solution (v/v) of Pierce Aquasil (Rockford, IL, USA) according to the manufacturer’s recommended procedure. Solid-phase extraction was performed on C-18 elution cartridge (3.0 ml, J.T. Baker Co.) using a VAC ELUTE SPS24 sample processing station (Analytichem International, Harbour City, CA, USA). The cartridge was preconditioned by sequential washing with 2.5 ml acetonitrile, 2.5 ml methanol and 2.5 ml water. One ml of distilled water was added to the cartridge before adding plasma sample (0.5 ml). Then, the cartridge was washed with 2.5 ml distilled water, 2.5 ml of 0.05 % H3PO4 (pH 4.5) and 2.5 ml of 20 % acetonitrile and completely dried by closing the vacuum for 15 min. The analytes were collected by eluting with 0.5 ml methanol three times and then with 0.5 ml 90:10 n-butyl chloride: ethyl acetate twice. The organic phases were pooled. The combined organic phases were then evaporated to dryness under a stream of nitrogen at room temperature. Extraction residues were reconstituted with 50:50 ethanol: water (0.3 ml), at least 16 h before injection. The injection volume was 100 µl for all samples.
(§3) The plasma concentration of parent drugs, AL and AS, and their primary metabolites, DHA and 2-hydroxyartelinate (OHAL) respectively, were measured by HPLC with electrochemical detection in reductive mode (HPLC-ECD) [16], which was the only method for artemisinin compounds then (Additional files 1 and 2).
(§4) HPLC with reductive electrochemical detection was performed using a model BAS 200B liquid chromatography (Bioanalytical Systems, Inc., West Lafayette, Indiana, USA). A Nova-Pak® C18 (3.9 × 150 mm, Waters Corporation, Milford, MA, USA) was used with 40 % acetonitrile in sodium acetate buffer (pH 3.6) as mobile phase. Detection was performed using a thin dual-layer glassy carbon electrode run in parallel mode at a potential of −1.0 V versus Ag/AgCl. The system was operated at the following temperatures: mobile phase 35 °C, column and detector oven 30 °C, cell 31 °C with the flow rate of 1.5 mL min^−1. Artemisinin (ART) was used as an internal standard. Samples were injected via Gilson model 231 XL sampling injector equipped with a 100 µL loop, a Gilson model 401 dilutor/pipettor, a sampler controller keypad (Gilson Medical Electronics, Middleton, WI, USA), and a Valco electrically actuated switching valve (Valco Instrument Co. Inc) was used. This system automatically deoxygenated and injected sample, which permits the high sample throughput associated with automated injection. Data were acquired and analysed using a Millennium^32 Chromatography Manager (Waters Corporation, Milford, MA, USA).

Plasmodium falciparum = test system: Plasmodium falciparum; design: method as in Newton, 2000 [22]; conditions: Human, 2 mg kg^−1 IV AS, ref Newton, 2000 [22], cited from earlier work
[2] = design: method as in PMID 2631113; conditions: rats, 1 h following IV administration; cited from earlier work
in vivo = conditions: rhesus monkey; for AUC(0-t) / AUC(0-inf) / clearance / Cmax / half-life: iv, 8 mg/kg; for clearance: Cl
Method: as §1, §2, §3, §4

[3] = DHA equivalents, infected rhesus

t1/2, metabolite (M) [1]: 31.1 min | Cl ([1]; iv, 8 mg/kg): 4.38 L hr^-1 kg ^-1 | concentration at 1 h (in vivo; Plasma concentration, mean): 0.05 µM | concentration at 3 h (in vivo; Plasma concentration, mean): 0 nM | concentration at 6 h (in vivo; Plasma concentration, mean): 0 nM | AUC(0-t) (in vivo; AUC 0-20): 4.78 µM·h | AUC(0-t) (in vivo; AUC0–20, parent compound (P)): 4.8 µM·h | AUC(0-t) (in vivo; AUC0–20, parent drug): 4.8 µM·h | AUC(0-inf) (in vivo; AUC0–∞, parent compound (P)): 4.8 µM·h | AUC(0-inf) (in vivo; AUC0–∞, parent drug): 4.8 µM·h | AUC(0-inf) (in vivo; AUC(0-inf)): 5.2 µM·h | clearance (in vivo): 78.3 mL/min/kg | clearance (in vivo; parent): 72.3 mL/min/kg | Cmax (in vivo; parent compound (P)): 28.2 µM | Cmax (in vivo; parent drug): 28.2 µM | half-life (in vivo; t1/2, parent compound (P)): 3.47 min | half-life (in vivo; t 1/2, z): 4.17 min
Compound: C[C@H]1[C@H](OC(=O)CCC(=O)O)O[C@@H]2O[C@@]3(C)CC[C@H]4[C@H](C)CC[C@@H]1[C@@]24OO3 [IV AS, Artesunic acid]
Parasite/µL, mean (Plasmodium coatneyi; 0.29 day post-dose): 32,080 Parasite/µL | Parasite Reduction (Plasmodium coatneyi; 0.29 day post-dose, IV AS experiment (mean; IM QN = its control monkey)): 88.6% | Parasite/µL, mean (Plasmodium coatneyi; 1.00 day post-dose): 63,163 Parasite/µL | Parasite Reduction (Plasmodium coatneyi; 1.00 day post-dose, IV AS experiment): 81.1% | Parasite/µL, mean (Plasmodium coatneyi; 1.29 day post-dose): 9,364 Parasite/µL | Parasite Reduction (Plasmodium coatneyi; 1.29 day post-dose, IV AS experiment): 97.1% | Parasite/µL, mean (Plasmodium coatneyi; 2.00 day post-dose): 1,383 Parasite/µL | Parasite Reduction (Plasmodium coatneyi; 2.00 day post-dose, IV AS experiment): 99.4% | Parasite/µL, mean (Plasmodium coatneyi; 2.29 day post-dose): 345 Parasite/µL | Parasite Reduction (Plasmodium coatneyi; 2.29 day post-dose, IV AS experiment): 99.8% | Parasite/µL, mean (Plasmodium coatneyi; 3.00 day post-dose): 96 Parasite/µL | Parasite Reduction (Plasmodium coatneyi; 3.00 day post-dose, IV AS experiment): 100.0% | Parasite Reduction (Plasmodium coatneyi; 3.29 day post-dose, IV AS experiment): 99.9% | Parasite/µL, mean (Plasmodium coatneyi; 4.00 day post-dose): 66 Parasite/µL | Parasite Reduction (Plasmodium coatneyi; 4.00 day post-dose, IV AS experiment): 100.0% | Parasite/µL, mean (Plasmodium coatneyi; 4.29 day post-dose): 87 Parasite/µL | Parasite Reduction (Plasmodium coatneyi; 4.29 day post-dose, IV AS experiment): 100.0% | Parasite/µL, mean (Plasmodium coatneyi; 5.00 day post-dose): 60 Parasite/µL | Parasite Reduction (Plasmodium coatneyi; 5.00 day post-dose, IV AS experiment): 100.0% | Parasite/µL, mean (Plasmodium coatneyi; 5.29 day post-dose): 31 Parasite/µL | Parasite Reduction (Plasmodium coatneyi; 5.29 day post-dose, IV AS experiment): 100.0% | Parasite/µL, mean (Plasmodium coatneyi; 6.00 day post-dose): 13 Parasite/µL | Parasite Reduction (Plasmodium coatneyi; 6.00 day post-dose, IV AS experiment): 100.0% | Parasite/µL, mean (Plasmodium coatneyi; 6.29 day post-dose): 23 Parasite/µL | Parasite Reduction (Plasmodium coatneyi; 6.29 day post-dose, IV AS experiment): 100.0% | Parasite/µL, mean (Plasmodium coatneyi; 7.00 day post-dose): 15 Parasite/µL | Parasite Reduction (Plasmodium coatneyi; 7.00 day post-dose, IV AS experiment): 100.0% | Parasite/µL, mean (Plasmodium coatneyi; 8.00 day post-dose): 4 Parasite/µL | Parasite Reduction (Plasmodium coatneyi; 8.00 day post-dose, IV AS experiment): 100.0% | Parasite/µL, mean (Plasmodium coatneyi; 9.00 day post-dose): 2 Parasite/µL | Parasite Reduction (Plasmodium coatneyi; 9.00 day post-dose, IV AS experiment): 100.0% | Parasite/µL, mean (Plasmodium coatneyi; 10.00 day post-dose): 0 Parasite/µL | Parasite Reduction (Plasmodium coatneyi; 10.00 day post-dose, IV AS experiment): 100.0% | PCT of individual animals (Plasmodium coatneyi; IV AL: the only two determinable, IV AS: the two most rapid): 4.0 days and 5.0 days | Recrudescence, median (range, n) (Plasmodium coatneyi; in vivo): 13 (9–19, 10) days | R, Day (recrudescence day), mean (Plasmodium coatneyi; n 2 IV AL, n 10 IV AS): 13 days | PC50 (Plasmodium coatneyi; range in evaluable animals (4 of 8 IV AL, 3 of 10 IV AS)): 0.32 to 5.88 h | Median PCT of the remaining eight monkeys (Plasmodium coatneyi; without the two most rapid): 8.0 days | Antimalarial activity expressed as DHA equi., mean (P. falciparum clone (W2); 0.08 h, healthy rhesus): 17.94 µmol/L | Antimalarial activity expressed as DHA equi., mean (P. falciparum clone (W2); 0.08 h, infected rhesus): 22.45 µmol/L | Antimalarial activity expressed as DHA equi., mean (P. falciparum clone (W2); 0.33 h, healthy rhesus): 5.77 µmol/L | Antimalarial activity expressed as DHA equi., mean (P. falciparum clone (W2); 0.33 h, infected rhesus): 4.28 µmol/L | Antimalarial activity expressed as DHA equi., mean (P. falciparum clone (W2); 0.67 h, healthy rhesus): 3.16 µmol/L | Antimalarial activity expressed as DHA equi., mean (P. falciparum clone (W2); 0.67 h, infected rhesus): 3.19 µmol/L | Antimalarial activity expressed as DHA equi., mean (P. falciparum clone (W2); 1.0 h, healthy rhesus): 1.75 µmol/L | Antimalarial activity expressed as DHA equi., mean (P. falciparum clone (W2); 1.0 h, infected rhesus): 1.58 µmol/L | Antimalarial activity expressed as DHA equi., mean (P. falciparum clone (W2); 3.0 h, healthy rhesus): 0.22 µmol/L | Antimalarial activity expressed as DHA equi., mean (P. falciparum clone (W2); 3.0 h, infected rhesus): 0.12 µmol/L | Antimalarial activity expressed as DHA equi., mean (P. falciparum clone (W2); 6.0 h, healthy rhesus): 0 µmol/L | Antimalarial activity expressed as DHA equi., mean (P. falciparum clone (W2); 6.0 h, infected rhesus): 0 µmol/L | AUC0–20, ePD (P. falciparum clone (W2); [3]): 242 µM·min | AUC0–∞, ePD (P. falciparum clone (W2); [3]): 485 µM·min | Bioactivity %AUC20 (P. falciparum clone (W2); mean, healthy rhesus): 48.3% | Bioactivity Cl (P. falciparum clone (W2); mean, healthy rhesus): 3.07 L hr^-1 kg ^-1 | Bioactivity %AUC20 (P. falciparum clone (W2); mean, infected rhesus): 55.0% | Bioactivity (DHA equi.) AUC(0-inf) (P. falciparum clone (W2); mean, infected rhesus): 476 (346–607) µmole min L^-1 | Bioactivity Cl (P. falciparum clone (W2); mean, infected rhesus): 3.18 (2.25–4.11) L hr^-1 kg ^-1 | Bioactivity Cl (P. falciparum clone (W2); mean, infected rhesus, listed as I.V. AS/Na): 3.18 L hr^-1 kg ^-1 | AUC (ePD) (Plasmodium falciparum; mean (95 % CI)): 636 (524–748) µmol min L^−1 | Cl (ePD) (Plasmodium falciparum): 0.83 (0.70–0.96) L h^−1 kg^−1 | tissue levels [2]: high levels of AS were found in brain, fat, intestine and serum
